{"source": "patent US8084596B2", "about": "“Regulated apoptosis” (The Board of Trustees of the Leland Stanford Junior …, priority 1993, dated 2011)", "key": {"[1]": {"biological_target": "T1, MZF3E (Mus musculus, UniProt P24161)", "T1 construct": "expressed in transfected cells", "T1 sequence (P24161 with tags, fused parts or gaps limits assumed)": "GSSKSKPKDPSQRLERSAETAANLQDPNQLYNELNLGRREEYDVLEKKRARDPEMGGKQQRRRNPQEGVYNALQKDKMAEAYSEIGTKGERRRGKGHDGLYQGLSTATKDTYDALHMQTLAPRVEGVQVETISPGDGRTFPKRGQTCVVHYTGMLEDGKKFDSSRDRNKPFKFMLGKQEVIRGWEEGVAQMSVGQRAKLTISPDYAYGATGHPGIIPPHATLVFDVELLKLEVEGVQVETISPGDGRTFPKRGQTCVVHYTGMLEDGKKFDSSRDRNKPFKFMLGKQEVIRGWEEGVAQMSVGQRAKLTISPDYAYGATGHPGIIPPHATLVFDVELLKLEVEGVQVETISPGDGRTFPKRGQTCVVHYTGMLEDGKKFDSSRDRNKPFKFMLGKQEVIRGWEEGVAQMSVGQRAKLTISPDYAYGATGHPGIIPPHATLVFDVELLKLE", "test": "Protein-tyrosine phosphorylation and kinase recruitment in Jurkat cells stably transfected with MZF3E", "type": "cell-based, human", "procedure": "Tyrosine phosphorylation after treatment of cells with either anti-CD3 MAb or FK1012 was detected using monoclonal alpha-phosphotyrosine antibodies. Whole cell lysates were analysed at varying times after stimulation."}, "[2]": {"system": "GF2E or GF3E with NF3V1E (G5E4TCAT reporter)", "sequence (P62942 2-108 limits assumed)": "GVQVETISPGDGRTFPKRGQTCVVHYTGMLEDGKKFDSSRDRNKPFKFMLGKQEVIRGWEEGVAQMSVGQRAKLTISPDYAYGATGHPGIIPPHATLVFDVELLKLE", "test": "Transcriptional induction: CAT activity in Jurkat TAg cells transfected with GAL4-FKBP and FKBP-VP16 chimeras", "type": "cell-based, human", "conditions": "1 μM ligand, 12 hours; samples 5 (GF2E, NF3V1E) and 6 (GF3E, NF3V1E) in the presence of ligand", "description": "Jurkat TAg cells were transfected with the indicated constructs (5 μg of each construct) by electroporation (960 μF, 250 v). After 24 hours, the cells were resuspended in fresh media and aliquoted. […] After 12 hours, the cells were washed and cellular extracts were prepared by repeated freeze-thaw. Chloramphenicol acetyltransferase (CAT) activity was measured by standard protocols. Molecular Cloning: A Laboratory Manual, Sambrook et al. eds. (1989) CSH Laboratory, pp. 16-59 ff. […]"}, "[3]": {"system": "MZF3Eflu / MZF3Eflag", "sequence (P62942 2-108 limits assumed)": "as above", "test": "Coimmunoprecipitation of epitope-tagged chimeras (anti-Flag agarose) in Jurkat T cells", "type": "cell-based, human"}, "[4]": {"biological_target": "T1, MZF3E", "test": "NFAT-SEAP reporter via myristoylated chimeric CD3/FKBP12 (MZF3E) receptor in Jurkat T cells", "type": "cell-based, human"}, "[5]": {"system": "NFAT", "test": "NFAT reporter (secreted alkaline phosphatase) after cross-linking chimeric receptor TAC/TAC/Z with anti-TAC mAb in TAg Jurkat cells", "type": "cell-based, human", "conditions": "addition of 1 ng/ml FK506; TTZ receptor, bound anti-TAC mAb", "excerpt": "The plasmid pSXNeo/IL2 (IL2-SX) (FIG. 1), which contains the placental secreted alkaline phosphatase gene under the control of human IL-2 promoter (−325 to +47; MCB(86) 6, 3042), and related plasmid variants (i.e. NFAT-SX, NF B-SX, OAP/Oct1-SX, and AP-1-SX) in which the reporter gene is under the transcriptional control of the minimal IL-2 promoter (−325 to −294 and -72 to −47) combined with synthetic oligomers containing various promoter elements (i.e. NFAT, NKB, OAP/Oct-1, and AP1, respectively), were made by three piece ligations of 1) pPL/SEAP (Berger, et al., Gene (1988) 66, 1) cut with SspI and HindIII; 2) pSV2/Neo (Southern and Berg, J. Mol. Appl. Genet. (1982) 1, 332) cut with NdeI, blunted with Klenow, then cut with Pvul; and 3) various promoter-containing plasmids (i.e. NFAT-CD8, B-CD8, cx121acZ-Oct-1, AP1-LUCIF3H, or cx151L2) described below) cut with PvuI and HindIII, NFAT-CD8 contains 3 copies of the NFAT-binding site (−286 to […]; Genes and Dev. (1990) 4, 1823) and cx12lacZ-Oct contains 4 copies of the OAP/Oct-1(ARRE-1) binding site (MCB, (1988) 8, 1715) from the human IL-2 enhancer; B-CD8 contains 3 copies of the NFB binding site from the murine light chain (EMBO (1990) 9, 4425) and AP1-LUCIF3H contains 5 copies of the AP-1 site (5′-TGA-[…]-3′ [SEQ ID NO:3]) from the metallothionen promoter. […]"}, "[6]": {"system": "TAg-Jurkat cells", "test": "Inhibitory activity of drugs on ionomycin/PMA-stimulated TAg-Jurkat cells (β-galactosidase, MUG fluorescence)", "type": "cell-based, human", "description": "Ionomycin (1 μm) and PMA (25 ng/ml) were added to 10^5 TAg-Jurkat cells. In addition, titrations of the various drugs were added. After 5 hours the cells were lysed in mild detergent (i.e. Triton X-100) and the extracts were incubated with the β-galactosidase substrate, MUG (methyl galactosidyl umbelliferone) for 1 hour. A glycine/EDTA stop buffer was added and the extracts assayed for fluorescence. Each data point obtained was the average of two samples and the experiment was performed several times with similar results."}, "[7]": {"test": "Immunosuppression / toxicity in cell culture", "type": "cell-based"}}}
{"molecule": "FK1012-A (p-xylylenediamine bridge) [FK1012A]", "values": [{"measurement": "recruitment of kinase activity to the zeta-chain (in vitro kinase assay after immunoprecipitation)", "setting": "[1]", "value": "resulted in the recruitment of kinase activity to the zeta-chain"}, {"measurement": "CAT activity", "setting": "[2]", "value": "CAT activity present as expected"}, {"measurement": "dimerization of FKBP monomer constructs MZF1Eflu and MZF1Eflag", "setting": "[3]", "value": "also dimerized by FK1012A"}, {"measurement": "coimmunoprecipitation of MZF3Eflu with MZF3Eflag", "setting": "[3]; 1 μM, Jurkat T cells coexpressing both chimeras", "value": "MZF3Eflag interacts with MZF3Eflu and is coimmunoprecipitated"}]}
{"molecule": "C=CC[C@@H]1/C=C(\\C)C[C@H](C)C[C@H](OC)[C@H]2O[C@@](O)(C(=O)C(=O)N3CCCC[C@H]3C(=O)O[C@H](/C(C)=C/[C@@H]3CC[C@@H](O)[C@H](OC)C3)[C@H](C)[C@@H](O)CC1=O)[C@H](C)C[C@@H]2OC", "note": "[FK506, reference compound]", "values": [{"measurement": "FK1012B stimulation of NFAT reporter", "setting": "[4]; addition of 1 ng/ml FK506", "value": "dropped all stimulations to near background levels"}, {"measurement": "alkaline phosphatase reporter activity due to NFAT", "setting": "[5]", "value": "dropped all activity due to NFAT to background levels"}]}
{"molecule": "FK1012-B (diaminodecane-1,10 bridge) [FK1012B]", "values": [{"measurement": "stimulation by the compound itself", "setting": "[6]; control experiment", "value": "not stimulatory by itself"}, {"measurement": "mitogen activity", "setting": "[6]; ionomycin 1 μm + PMA 25 ng/ml, highest concentration 5 μg/ml", "value": "appears to augment mitogen activity slightly"}]}
{"molecule": "CO[C@H]1C[C@@H](C)C/C(C)=C/[C@@H](CCOC(=O)NCc2ccccc2)C(=O)C[C@H](O)[C@@H](C)[C@@H](/C(C)=C/[C@@H]2CC[C@@H](O)[C@H](OC)C2)OC(=O)[C@@H]2CCCCN2C(=O)C(=O)[C@]2(O)O[C@H]1[C@@H](OC)C[C@H]2C", "note": "[FK506-M]", "values": [{"measurement": "termination of FK1012-induced signaling (deaggregation)", "setting": "[4]", "value": "FK1012-induced signaling can be terminated"}, {"measurement": "toxicity", "setting": "[7]", "value": "nontoxic"}]}
